How the values were obtained:
[1] = test system: Phospho-ERK levels in KYSE-520 cells; assay: ERK Phosphorylation (Phospho-ERK) Target Engagement Assay (HTRF); type: cell-based; conditions: Homo sapiens, 2 hr compound incubation, phospho-ERK1/2 HTRF kit, read-out: pERK target engagement assay Avg IC50
Method: KYSE-520 cells (10 k cells/well) are plated onto 384-well plate in 20 uL of medium (RPMI-1640, without phenol red, containing 10% FBS) and incubated at 37° C., 5% CO2 16 h. DMSO (control) or increasing concentrations of compounds are diluted in medium, added to the 384-well plate (10 uL/well, final DMSO concentration of 0.5-1%), and cells are then incubated with compounds for 2 hr. Phospho-ERK levels are measured using a TR-FRET based phospho-ERK1/2 HTRF kit (CisBio, 64ERKPEH) following manufacturer's recommendations, and fluorescence signal was measured at 665 nm and 620 nm using Synergy Neo plate reader. Dose-response curves were analyzed using IC50 regression curve fitting (GeneData Screener). Curves were normalized to a high controls without inhibitor, and low controls with 1 μM of selumetinib.

[2] = biological target: PTPN11-E76K mutant enzyme (Homo sapiens (Human), UniProt Q06124, E76K); assay: PTPN11 Enzymatic Assay (DiFMUP phosphatase activity); type: biochemical; conditions: full length PTPN11-E76K mutant enzyme 250 pM, DiFMUP 50 μM, 30 min preincubation; read-out: PTPN11-E76K Avg IC50
Sequence of PTPN11-E76K mutant enzyme (Q06124 whole entry E76K): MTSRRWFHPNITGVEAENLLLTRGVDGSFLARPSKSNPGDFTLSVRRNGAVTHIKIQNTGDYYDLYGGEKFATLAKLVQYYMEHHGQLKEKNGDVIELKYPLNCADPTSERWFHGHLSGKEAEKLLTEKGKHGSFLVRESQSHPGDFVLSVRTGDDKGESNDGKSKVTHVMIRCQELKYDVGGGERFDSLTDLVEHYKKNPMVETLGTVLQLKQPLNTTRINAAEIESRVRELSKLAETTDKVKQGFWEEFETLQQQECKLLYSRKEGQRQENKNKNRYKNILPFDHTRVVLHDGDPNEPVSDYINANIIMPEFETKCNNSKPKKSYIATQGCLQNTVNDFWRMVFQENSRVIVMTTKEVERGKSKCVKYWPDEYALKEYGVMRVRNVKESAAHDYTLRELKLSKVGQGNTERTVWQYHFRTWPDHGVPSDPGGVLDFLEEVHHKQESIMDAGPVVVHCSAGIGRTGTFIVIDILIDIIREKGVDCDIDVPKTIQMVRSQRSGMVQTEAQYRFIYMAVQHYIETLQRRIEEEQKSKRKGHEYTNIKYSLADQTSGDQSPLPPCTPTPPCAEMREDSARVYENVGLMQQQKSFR
Method: Reaction was initiated by addition of DiFMUP (50 μM) at room temperature in 384-well black plate with a final reaction volume of 20 uL in assay buffer. […] Dose-response curves were analyzed using IC50 regression curve fitting (GeneData Screener). Curves were normalized to a high controls without inhibitor, and low controls without enzyme.

[3] = test system: Phospho-ERK levels in KYSE-520 cells; assay: pERK AlphaScreen Protocol; type: cell-based; conditions: Homo sapiens, KYSE-520, 2 h, KYSE-520 cells, 2 hr compound incubation, phospho-ERK1/2 AlphaScreen SureFire; read-out: PERK Avg IC50
Procedure, shortened: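 After overnight growth at 10 k cells/well in RPMI-1640 with 10% FBS, KYSE-520 cells received compound dilutions for 2 h at 1% final DMSO.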

[4] = test system: BT474 human breast carcinomas cell line; assay: In Vivo Tumor Models: BT474 xenograft; conditions: BT474 (HER2+) xenograft in mouse, 100 mg/kg once per day oral gavage, 5 days on/2 days off, 4 weeks
Description: Xenografts were initiated with BT474 human breast carcinomas cell line and maintained by serial subcutaneous transplantation in CB-17/SCID mice (Charles River). On the day of tumor implant, each test mouse received a 1 mm^3 BT474 fragment implanted subcutaneously in the right flank, and tumor growth was monitored as the average size approached the target range of 100 to 150 mm3. About three weeks post-implantation, the animals were randomized and grouped based on tumor volume and mouse body weight. […] Tumors were measured in two dimensions using calipers, and volume was calculated using the formula: Tumor Volume (mm^3)=[…].
Results are found in FIGS. 1 and 2.

| Compound | IC50 [1] [nM] | IC50 [2] [nM] | IC50 [3] [nM] | suppression of tumor growth [4] | tolerability of dose [4] |
| --- | --- | --- | --- | --- | --- |
| CNC1(C)CCN(c2cnc3c(-c4cccc(Cl)c4Cl)n[nH]c3n2)CC1 [Example 6, 1-(3-(2,3-Dichlorophenyl)-1H-pyrazolo[3,4-b]-pyrazin-6-yl)-N,4-dimethylpiperidin-4-amine] | 124 | 2 |  |  |  |
| CC1(CN)CCN(c2cnc3c(-c4cccc(Cl)c4Cl)n[nH]c3n2)CC1 [Example 4, (1-(3-(2,3-dichloro-phenyl)-1H-pyrazolo[3,4-b]-pyrazin-6-yl)-4-methylpiperidin-4-yl)methanamine] | 73 |  |  |  |  |
| N[C@@H]1[C@H]2CN(c3cnc4c(-c5cccc(Cl)c5Cl)n[nH]c4n3)C[C@@H]12 [Example 3, (1R,5S,6S)-3-(3-(2,3-dichlorophenyl)-1H-pyrazolo[3,4-b]-pyrazin-6-yl)-3-aza-bicyclo[3.1.0]hexan-6-amine] | 322 | 1070 |  |  |  |
| Clc1cccc(-c2n[nH]c3nc(N4CCC5(CCNC5)CC4)cnc23)c1Cl [Example 2, 8-(3-(2,3-dichloro-phenyl)-1H-pyrazolo[3,4-b]-pyrazin-6-yl)-2,8-diazaspiro-[4.5]decane] | 169 | 787 |  |  |  |
| NCC1(O)CCN(c2cnc3c(-c4cccc(F)c4Cl)n[nH]c3n2)CC1 [Example 37, 4-(Aminomethyl)-1-(3-(2-chloro-3-fluorophenyl)-1H-pyrazolo[3,4-b]pyrazin-6-yl)-piperidin-4-ol] |  | 623 | 223 |  |  |
| CC1(N)CCN(c2cnc3c(-c4cccc(C(F)(F)F)c4)n[nH]c3n2)CC1 [Example 21, 4-Methyl-1-(3-(3-(trifluoromethyl)phenyl)-1H-pyrazolo[3,4-b]pyrazin-6-yl)piperidin-4-amine] |  | 956 | 620 |  |  |
| CC1(N)CCN(c2cnc3c(-c4cccc(Cl)c4Cl)n[nH]c3n2)CC1 [Example 1, 1-(3-(2,3-dichlorophenyl)-1H-pyrazolo[3,4-b]pyrazin-6-yl)-4-methylpiperidin-4-amine] | 49 |  |  | significant suppression of tumor growth | tolerated |

From patent US10280171B2, “Heterocyclic inhibitors of PTPN11” (priority 2016, dated 2019)
